EC50 data for 23 compounds are collected here from US20070099941A1, “N-arylalkyl-thienopyrimidin-4-amines and analogs as activators of caspases and inducers of apoptosis and the use thereof” (Cytovia, Inc., priority 2005, published 2007).

Assay [1] has as its system human lung cancer cell line H1299. In words: Caspase cascade activation assay in H1299 cells. The format is cell-based. Particulars: NCI-H1299, 24 h or 48 h incubation, read-out: Caspase Activation Potency EC50 H1299. As for the experimental part:
(§1) Human breast cancer cell lines T-47D and human lung cancer cell line H1299 were grown according to media component mixtures designated by American Type Culture Collection+10% FCS (Invitrogen Corporation), in a 5% CO2-95% humidity incubator at 37° C. T-47D and H1299 cells were maintained at a cell density between 50 and 80% confluency at a cell density of 0.1 to 0.6×10^6 cells/mL. Cells were harvested at 600×g and resuspended at 0.65×10^6 cells/mL into appropriate media+10% FCS. An aliquot of 22.5 μL of cells was added to a well of a 384-well microtiter plate containing 2.5 μL of a 10% DMSO in RPMI-1640 media solution containing 0.16 to 100 μM of N-(3,4-methylenedioxybenzyl)-6-phenylthieno[3,2-d]pyrimidin-4-amine or other test compound (0.016 to 10 μM final). An aliquot of 22.5 μL of cells was added to a well of a 384-well microtiter plate containing 2.5 μL of a 10% DMSO in RPMI-1640 media solution without test compound as the control sample. The samples were mixed by agitation and then incubated at 37° C. for 24 h or 48 h in a 5% CO2-95% humidity incubator. After incubation, the samples were removed from the incubator and 25 μL of a solution containing 14 μM of N-(Ac-DEVD)-N′-ethoxycarbonyl-R110 (SEQ ID No.:1) fluorogenic substrate (Cytovia, Inc.; WO99/18856), 20% sucrose (Sigma), 20 mM DTT (Sigma), 200 mM NaCl (Sigma), 40 mM Na PIPES buffer pH 7.2 (Sigma), and 500 μg/mL lysolecithin (Calbiochem) was added. The samples were mixed by agitation and incubated at room temperature. Using a fluorescent plate reader (Model SPECTRAfluor Plus, Tecan), an initial reading (T=0) was made approximately 1-2 min after addition of the substrate solution, employing excitation at 485 nm and emission at 530 nm, to determine the background fluorescence of the control sample. After the 3 h incubation, the samples were read for fluorescence as above (T=3 h).
(§2) The Relative Florescence Unit values (RFU) were used to calculate the sample readings as follows: RFU(T=3h)−Control RFU(T=0)=Net RFU(T=3h)
(§3) The activity of caspase cascade activation was determined by the ratio of the net RFU value for N-(3,4-methylenedioxybenzyl)-6-phenylthieno[3,2-d]pyrimidin-4-amine (Example A) or other test compound to that of control samples. The EC50 (nM) was determined by a sigmoidal dose-response calculation (Prism 3.0, GraphPad Software Inc.).

Assay [2] deals with human breast cancer cell line T-47D. Put plainly: Caspase cascade activation assay in T-47D cells. The format is cell-based. The settings on record: T47D, 24 h or 48 h incubation, read-out: Caspase Activation Potency EC50 T-47D. As for the experimental part:
as §1, §2, §3

In general, EC50 refers to the concentration that produces a half-maximal response. Take `c1nc(NCc2ccc3c(c2)OCO3)c2sc(-c3ccoc3)cc2n1` [Example 12, N-(3,4-Methylenedioxybenzyl)-6-(furan-3-yl)thieno[3,2-d]pyrimidin-4-amine]: the concentration for a half-maximal effect (EC50) in assay [1] was 2.79 µM; in assay [2] it was 2.8 µM.

Take `CN(Cc1ccc2c(c1)OCO2)c1ncnc2cc(-c3cccnc3)sc12` [Example 22, N-(3,4-Methylenedioxybenzyl)-N-methyl-6-(pyridin-3-yl)thieno[3,2-d]pyrimidin-4-amine]: the EC50 stood at 0.157 µM in assay [1] and 0.147 µM in assay [2].

`COc1ccc(CNc2ncnc3cc(-c4cccnc4)sc23)cc1OC` [Example 15, N-(3,4-Dimethoxybenzyl)-6-(pyridin-3-yl)thieno[3,2-d]pyrimidin-4-amine]: the half-maximal effective concentration (EC50) in assay [1] and in assay [2] was more than 10 µM in each case.

Take `COc1ccc(CNc2ncnc3cc(I)sc23)c(OC)c1` [Example 16, N-(2,4-Dimethoxybenzyl)-6-iodothieno[3,2-d]pyrimidin-4-amine]: the EC50 in assay [1] was 2.87 µM; in assay [2], 1.29 µM.

Take `COc1cc(OC)c(CNc2ncnc3cc(-c4cccnc4)sc23)c(OC)c1` [Example 19, N-(2,4,6-Trimethoxybenzyl)-6-(pyridin-3-yl)thieno[3,2-d]pyrimidin-4-amine]: the EC50 is 2.89 µM in assay [1] and 5.13 µM in assay [2].

Consider `Cc1c(I)sc2c(NCc3ccc4c(c3)OCO4)ncnc12` [Example 7, N-(3,4-Methylenedioxybenzyl)-6-iodo-7-methylthieno[3,2-d]pyrimidin-4-amine], for which the concentration giving a half-maximal response (EC50) in assay [1] and in assay [2] was more than 10 µM each time.

Regarding `Oc1ccc(CNc2ncnc3cc(-c4cccnc4)sc23)cc1` [Example 25, N-(4-Hydroxybenzyl)-6-(pyridin-3-yl)thieno[3,2-d]-pyrimidin-4-amine], the EC50 in assay [1] and in assay [2] was more than 10 µM each time.

With `Cc1nc(NCc2ccc3c(c2)OCO3)c2sc(-c3cccnc3)cc2n1` [Example 23, N-(3,4-Methylenedioxybenzyl)-2-methyl-6-(pyridin-3-yl)thieno[3,2-d]pyrimidin-4-amine], the EC50 in assay [1] and in assay [2] was more than 10 µM in each case.

`Brc1cc2ncnc(NCc3ccc4c(c3)OCO4)c2s1` [Example 11, N-(3,4-Methylenedioxybenzyl)-6-bromothieno[3,2-d]pyrimidin-4-amine]: the EC50 in assay [1] and in assay [2] was more than 10 µM throughout.

Consider `Cc1c(-c2ccccc2)sc2c(NCc3ccc4c(c3)OCO4)ncnc12` [Example 8, N-(3,4-Methylenedioxybenzyl)-7-methyl-6-phenylthieno[3,2-d]pyrimidin-4-amine], for which the EC50 in assay [1] and in assay [2] was more than 10 µM each time.

For the compound `c1ncc(-c2cc3ncnc(NCc4ccc5c(c4)OCO5)c3s2)cn1` [Example 13, N-(3,4-Methylenedioxybenzyl)-6-(pyrimidin-5-yl)thieno[3,2-d]pyrimidin-4-amine], the half-maximal effective concentration (EC50) was 5.43 µM in assay [1] and 5.39 µM in assay [2].

Consider `c1nc(NCc2ccc3c(c2)OCO3)c2sccc2n1` [Example 1, N-(3,4-Methylenedioxybenzyl)-thieno[3,2-d]pyrimidin-4-amine], for which the EC50 in assay [1] and in assay [2] was more than 10 µM in each case.

On to `COc1ccc(OC)c(CNc2ncnc3cc(I)sc23)c1` [Example 18, N-(2,5-Dimethoxybenzyl)-6-iodothieno[3,2-d]pyrimidin-4-amine], for which the EC50 in assay [1] came to 2.57 µM; in assay [2], 2.3 µM.

With `COc1ccc(OC)c(CNc2ncnc3cc(-c4cccnc4)sc23)c1` [Example 20, N-(2,5-Dimethoxybenzyl)-6-(pyridin-3-yl)thieno[3,2-d]pyrimidin-4-amine], the EC50 in assay [1] and in assay [2] was more than 10 µM each time.

Consider `Cc1nc(NCc2ccc3c(c2)OCO3)c2sc(Br)cc2n1` [Example 21, N-(3,4-Methylenedioxybenzyl)-6-bromo-2-methylthieno[3,2-d]pyrimidin-4-amine], for which the EC50 in assay [1] and in assay [2] was more than 10 µM throughout.

For `Oc1ccc(CNc2ncnc3cc(Br)sc23)cc1` [Example 24, N-(4-Hydroxybenzyl)-6-bromothieno[3,2-d]-pyrimidin-4-amine], the EC50 in assay [1] and in assay [2] was more than 10 µM each time.

Regarding `COc1ccc(CNc2ncnc3cc(-c4ccccc4)sc23)cc1` [Example 10, N-(4-Methoxybenzyl)-6-phenylthieno[3,2-d]pyrimidin-4-amine], the concentration giving a half-maximal response (EC50) amounted to 2.68 µM in assay [1] and 1.4 µM in assay [2].

Regarding `c1ccc(-c2cc3ncnc(NCc4ccc5c(c4)OCO5)c3s2)nc1` [Example 6, N-(3,4-Methylenedioxybenzyl)-6-(pyridin-2-yl)thieno[3,2-d]pyrimidin-4-amine], the EC50 is 5.1 µM in assay [1] and 4.32 µM in assay [2].

For the compound `c1coc(-c2cc3ncnc(NCc4ccc5c(c4)OCO5)c3s2)c1` [Example 4, N-(3,4-Methylenedioxybenzyl)-6-(furan-2-yl)thieno[3,2-d]pyrimidin-4-amine], the EC50 came to 2.39 µM in assay [1] and 2.43 µM in assay [2].

Take `COc1cc(OC)c(CNc2ncnc3cc(I)sc23)c(OC)c1` [Example 17, N-(2,4,6-Trimethoxybenzyl)-6-iodothieno[3,2-d]pyrimidin-4-amine]: the EC50 in assay [1] and in assay [2] was more than 10 µM each time.

In the case of `c1cc(-c2cc3ncnc(NCc4ccc5c(c4)OCO5)c3s2)ccn1` [Example 2, N-(3,4-Methylenedioxybenzyl)-6-(pyridin-4-yl)thieno[3,2-d]pyrimidin-4-amine], the EC50 in assay [1] and in assay [2] was more than 10 µM in each case.

With `COc1ccc(CNc2ncnc3cc(I)sc23)cc1OC` [Example 14, N-(3,4-Dimethoxybenzyl)-6-iodothieno[3,2-d]pyrimidin-4-amine], the EC50 worked out at 5.08 µM in assay [1] and 4.3 µM in assay [2].

With `COc1ccc(CNc2ncnc3cc(I)sc23)cc1` [Example 9, N-(4-Methoxybenzyl)-6-iodothieno[3,2-d]pyrimidin-4-amine], the EC50 in assay [1] and in assay [2] was more than 10 µM throughout.
